Experimental data: US8318491B2, “Method of differentiating hematopoietic stem cells into natural killer cells using YC-1 or IL-21” (Korea Research Institute of Bioscience and Biotechnology, priority 2007, dated 2012)

What was measured:
[1] = tested on: hematopoietic stem cells of cord blood / NK precursor cells (pNK); test: FACS analysis of CD56+ NK cell population during differentiation of cord blood hematopoietic stem cells into mature NK cells via NK precursor cells; assay type: cell-based, human; settings: for NK cells (FACS analysis): in the presence of IL-15, FIGS. 10 and 11; for CD56+ NK cell population: cultured in the presence of IL-15, vs IL-15 alone
Description: Cord blood provided from Department of Obstetric & Gynecology, Konyang University Hospital, Taejon, Korea, for the purpose of study only was diluted in RPMI 1640 (GIBCO-BRL, USA) at the ratio of 2:1. The prepared cord blood was loaded on the upper part of Ficoll-Paque (Sigma, USA), followed by centrifugation ([…], 30 minutes) to separate mononuclear cells (MNC). Erythrocytes were eliminated from the obtained cells and the obtained mononuclear cells were marked with the hematopoietic stem cell marker ‘CD34 microbeads’. Then, CD34+ cells were separated by MS/RS column and MACS (Magnetic Activated Cell Sorter). The purity of the obtained CD34+ hematopoietic stem cells (referred as “HSC cells” hereinafter) was measured by FACS (BD Bioscience, Mountainview, Calif.), which was 92% (FIG. 1).
The HSC cells separated from cord blood in Example 1 were inoculated in a 12-well plate (Falcon, USA) containing the Myelocult complete medium (Stem cell Technology, CA) supplemented with 30 ng/ml of human […] (PeproTech, USA), 50 ng/ml of human Flt3L (FMS-like tyrosine kinase 3 ligand, PeproTech, USA), 5 ng/ml of human IL-7 (PeproTech, USA), and 10^−6 M of […] at the concentration of 1×10^6 cells/well, followed by culture for 14 days in a 37° C., 5% CO2 incubator. Three days later, half of the supernatant was replaced with a fresh medium containing cytokines having the same composition as the above. For the differentiation into mature NK cells (referred as “NK cells” hereinafter), HSC cells were recovered 14 days later and cultured again for 14 days in the presence of human IL-15 (30 ng/ml, PeproTech, USA). Three days later, half of the medium was replaced with a fresh medium containing cytokines having the same composition as the above. (FIG. 2). On the 28th day of culture, the purity of NK cells was measured by using anti-CD56 antibody and the expression of NK cell receptor was measured by flow cytometry (FACS) (FIG. 3).
(§1) To investigate the effect on NK cell differentiation of IL-21 known to promote differentiation and increase activity, IL-21 (20 ng/ml, PeproTech, USA) was treated during the process of differentiation from hematopoietic stem cells of cord blood into mature NK cells (mNK) through NK precursor cells (pNK). The cells were cultured in the presence of IL-15, followed by FACS analysis and ^51Cr release assay.
To investigate the effect on NK cell differentiation of YC-1 [3-(5′-hydroxymethyl-2′-furyl)-1-benzylindazole, formula 1] known as an anticancer agent functioning in suppressing HIF-1α activity to inhibit tumor cell growth, YC-1 (1 uM, Sigma) was treated during the process of differentiation from hematopoietic stem cells of cord blood into mature NK cells (mNK) through NK precursor cells (pNK). […]

NK cells = test: 51Cr release assay of the killing activity of differentiated mature NK cells; assay type: cell-based, human; settings: cultured in the presence of IL-15
Description: as §1
To investigate the effect on NK cell differentiation of YC-1 [3-(5′-hydroxymethyl-2′-furyl)-1-benzylindazole, formula 1] known as an anticancer agent functioning in suppressing HIF-1α activity to inhibit tumor cell growth, YC-1 (1 uM, Sigma) was treated during the process of differentiation from hematopoietic stem cells of cord blood into mature NK cells (mNK) through NK precursor cells (pNK). The cells were cultured in the presence of IL-15, followed by FACS analysis and ^51Cr release assay.

| Compound | NK cells (FACS analysis) ([1]; YC-1 0.5 uM alone (low concentration)) | CD56+ NK cell population ([1]; YC-1 1 uM treated to pNK, FIGS. 7 and 8) | killing activity of NK cells (NK cells; YC-1 1 uM, E:T 5:1, FIG. 9) | NK cells (FACS analysis) ([1]; IL-21 10 ng/ml alone (low concentration)) | CD56+ NK cell population ([1]; IL-21 20 ng/ml treated to pNK, FIGS. 4 and 5) | killing activity of NK cells (NK cells; IL-21 20 ng/ml, E:T 2.5:1, FIG. 6) |
| --- | --- | --- | --- | --- | --- | --- |
| OCc1ccc(-c2nn(Cc3ccccc3)c3ccccc23)o1 [YC-1, 3-(5′-hydroxymethyl-2′-furyl)-1-benzylindazole] | slightly increased | increased | increased |  |  |  |
| IL-21: cytokine secreted by activated CD4+ T cells; amino acid sequence represented by SEQ. ID. NO: 1 (PeproTech) |  |  |  | slightly increased | increased | increased |
